According to US20090155218A1, “COMPOSITIONS AND METHODS FOR GROWTH OF EMBRYONIC STEM CELLS” (priority 2004, published 2009):
Entries after “also recorded” stand apart in the source; their conditions may differ.

Key:
hES cells [1] = test: Proliferation assay, 3H thymidine incorporation; format: cell-based, human; settings: on laminin, 16 hours pulse, n=4
Protocol: Proliferation assay to quantify rates of proliferation under different culture conditions: Cells were cultured in 6 well plates on laminin in the presence of either FGF2-supplemented CM from feeder layers or activin A, KGF, NIC, or a combination of these 3 factors. Cultures were pulsed with 1 μCi/ml [methyl ^3H] thymidine (specific activity 6.7 Ci/mmol; MP Biomedicals, Irvine Calif.; www.mpbio.com) in newly replenished medium. After 16 hours, cells were harvested and thymidine incorporation into cells was quantified as previously described.^23 Briefly, DNA content was measured fluoremetrically, and incorporation of ^3H thymidine was determined by liquid scintillation counting of trichloracetic acid precipitates of the sonicated cells. Statistical significance of observed differences was determined by analysis of variance and Fischer's protected least significance difference test with a 95% level as the limit of significance using Statview IV (Abacus Concepts, Berkeley Calif.).

HSF6 cells [2] = test: Follistatin added to HSF6 cells on mEFs (immunohistochemistry, RT-PCR); format: cell-based, human; settings: on mEFs with follistatin
Protocol: (§1) Stem cell culture: hES cell line HSF6 was maintained on mitomycin C treated CF1 mouse feeder layers (mEF) at 37° C., 5% CO2 in DSR medium, which consisted of high glucose DMEM containing knockout serum replacer, glutamine, non-essential amino acids, 0.1 mM β-mercaptoethanol (all from Gibco, Carlsbad, Calif.; www.invitrogen.com) as previously described,^19 or on laminin (20 μg/ml, Chemicon, www.chemicon.com) coated dishes or in DSR containing 50 ng/ml human recombinant Activin A (ACT A), 50 ng/ml human recombinant Keratinocyte Growth Factor (KGF), both from Preprotech Inc. (Rocky Hill N.J.; www.preprotech.com). These concentrations were determined from previous experiments with human fetal pancreatic cell culture.^14, 20 In some experiments, 10 ng/ml human recombinant Bone Morphogenetic Protein 4 (BMP-4; R&D Systems Minneapolis, Minn. www.RnDSystems.com) was used to replace ACT A, and 0.4 μg/ml follistatin (R&D Systems) was added to ES cells grown on mEFs, sufficient to neutralize 50 ng/ml Act A according to the manufacturer's directions. Medium was changed every day on cells grown on mEFs and every other day, on cells grown on laminin with the growth factors. Cells were passaged weekly at 1:3 or 1:4 dilution.
In some experiments, 10 ng/ml human recombinant Bone Morphogenetic Protein 4 (BMP-4; R&D Systems Minneapolis, Minn. www.RnDSystems.com) was used to replace activin A, and 2 μg/ml recombinant mouse FS-288 follistatin (R&D Systems) was added to ES cells grown on mEFs, sufficient to neutralize 50 ng/ml activin A according to manufacturer's directions. Medium was changed every day on cells grown on mEFs or in CM and every other day, on cells grown on laminin with the growth factors. Cells were passaged weekly at 1:3 or 1:4 dilution by gentle treatment with 1 mg/ml Collagenase IV (Gibco BRL) for 5 minutes, followed by scraping.
Immunohistochemistry: Stem cell cultures were grown on coverslips coated with mEFs or laminin fixed with 4% paraformaldehyde and stained. Protein expression of the stem cell markers TRA-1-60 and Oct-4 was analyzed by immunohistochemistry using primary mouse anti-TRA-1-60 (Chemicon) and rabbit anti-OCT-4 antiserum (a generous gift from Dr Hans Scholer, U Penn). Control slides were incubated with mouse IgM and rabbit IgG. […]
Alternatively, hES cell cultures were grown on coverslips coated with mEFs or laminin, fixed with 4% paraformaldehyde and immunostained as previously described.^4 Protein expression of the stem cell markers TRA-1-60, SSEA-4 and Oct-4 was analyzed using primary mouse anti-TRA-1-60 IgM (Chemicon) mouse anti-SSEA-4 IgG3 (DSHB, U of Iowa, Iowa City, Iowa), and rabbit anti-Oct-4 antiserum (a generous gift from Dr Hans Scholer, U Penn). […]

activin A = target: T1, activin A (Homo sapiens, UniProt P08476); settings: cited from earlier work
T1 sequence (P08476 311-426): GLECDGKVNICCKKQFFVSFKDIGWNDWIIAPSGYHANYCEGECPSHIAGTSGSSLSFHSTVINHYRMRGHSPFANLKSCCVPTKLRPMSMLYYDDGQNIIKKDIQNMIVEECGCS

[3] = tested on: members of the BMP family; settings: cited from earlier work
TGFβ = settings: cited from earlier work
hES cells [4] = test: Semi-quantitative RT-PCR of stem cell markers in hES cells grown on laminin; format: cell-based, human; settings: 1 week for NK and BMP-4 (10 ng/ml, replacing activin A)
Protocol: as §1
(§2) Alternatively, hES cell line HSF6 was maintained on mitomycin C treated CF1 mouse feeder layers (mEF) at 37° C., 5% CO2 in DSR medium as previously described^4. […]

hES cell line HSF6 = test: Long-term feeder-free culture and passaging in the undifferentiated state; format: cell-based, human
Protocol: as §1
Alternatively, hES cell line HSF6 was maintained on mitomycin C treated CF1 mouse feeder layers (mEF) at 37° C., 5% CO2 in DSR medium as previously described^4. For the experiments described here, passage 43 hES cells were cultured on laminin (20 μg/ml, Chemicon, www.chemicon.com) coated dishes in the presence of conditioned medium from mEFs (CM) supplemented with 10 ng/ml basic fibroblast growth factor (FGF2; Preprotech Inc. Rocky Hill N.J.; www.preprotech.com), or on laminin in DSR medium containing 50 ng/ml human recombinant activin A, 50 ng/ml human recombinant KGF, both from Preprotech, and 10 mM Nicotinamide (NIC; Sigma Corp, St Louis Mo.). […]

HSF6 cells [5] = test: Flow cytometric analysis of TRA-1-60 cell-surface antigen expression; format: cell-based, human; settings: activin removed from the culture for 1 week (NIC+KGF remain)
Protocol: Alternatively, hES cell line HSF6 was maintained on mitomycin C treated CF1 mouse feeder layers (mEF) at 37° C., 5% CO2 in DSR medium as previously described^4. For the experiments described here, passage 43 hES cells were cultured on laminin (20 μg/ml, Chemicon, www.chemicon.com) coated dishes in the presence of conditioned medium from mEFs (CM) supplemented with 10 ng/ml basic fibroblast growth factor (FGF2; Preprotech Inc. Rocky Hill N.J.; www.preprotech.com), or on laminin in DSR medium containing 50 ng/ml human recombinant activin A, 50 ng/ml human recombinant KGF, both from Preprotech, and 10 mM Nicotinamide (NIC; Sigma Corp, St Louis Mo.).
Flow cytometric analysis: Flow cytometry was used to quantify undifferentiated cells under different culture conditions. Cells were harvested using a 60 minute collagenase treatment followed by shearing into a single cell suspensions and filtering using a 70 micron cell filter. Single cells from each condition were labeled with mouse anti TRA-1-60 or mouse IgM (for controls) and FITC-conjugated donkey anti-mouse IgM (Jackson Immunoresearch). Cells were analyzed using a Becton Dickinson FACScan, and cell-surface antigen expression quantitated using CellQuest software.

HSF6 cells [6] = test: Immunohistochemistry of stem cell markers in hES cells grown on laminin; format: cell-based, human; settings: NK and A for 1 week
Protocol: as §1, §2

Smad2 = test: Western blotting for phosphorylated Smad2; format: cell-based, human; settings: HSF6 cells grown in the presence of Activin A
Protocol: Western blotting: Western blotting was used for phosphorylated Smad2, and was performed on lysates of HSF6 cells as previously described.^4 Cells cultured in the presence of activin A were lysed in detergent containing buffer supplemented with vanadate (10 μM) and microcystin (1 μM) and first blotted with phospho-Smad2 (ser465/467) antibody (Cell Signaling, cellsignal.com). Blots were then stripped and reprobed with Smad2 antibody (Cell Signaling).

With `NC(=O)c1cccnc1` [NIC, nicotinamide, reference compound] the “proliferation rate (3H thymidine incorporation)” value (hES cells [1]) was “intermediate”.

For follistatin, the “expression of oct-4 and nanog, RT-PCR” value (HSF6 cells [2]; 1 week) was “absent (nanog) or markedly diminished (oct-4)”, the “staining for TRA-1-60 and Oct-4 (immunohistochemistry)” value (HSF6 cells [2]; 1 week) was “lost staining for TRA-1-60 (cytoplasmic), with reduced staining for Oct-4” and the “expression of oct-4 and nanog, RT-PCR” value (HSF6 cells [2]; 2 weeks) was “completely lost”. The “staining for Oct-4 (immunohistochemistry)” value (HSF6 cells [2]; 2 weeks) was “Oct-4 immunoreactivity had completely disappeared”, the “affinity for activin A” value (activin A) was “extremely high affinity” and the “affinity for members of the BMP family” value [3] was “lower affinity”. For the same molecule, the “binding to TGFβ” value (TGFβ) was “does not bind”.

B1: BMP-4: human recombinant Bone Morphogenetic Protein 4, another TGFβ family member, used to replace activin A (protein, UniProt P12644 293-408, looked up)
Bone morphogenetic protein 4: SPKHHSQRARKKNKNCRRHSLYVDFSDVGWNDWIVAPPGYQAFYCHGDCPFPLADHLNSTNHAIVQTLVNSVNSSIPKACCVPTELSAISMLYLDEYDKVVLKNYQEMVVEGCGCR
In the case of B1, the “expression of stem cell markers oct-4, nanog (telomerase), RT-PCR” value (hES cells [4]) is reported as “loss of expression for nanog, oct-4, and telomerase; also recorded: complete loss of expression for nanog and oct-4”.

B2: Activin A: human recombinant Activin A, TGFβ family member; homodimer of inhibin beta-A chain (protein)
chain: GLECDGKVNICCKKQFFVSFKDIGWNDWIIAPSGYHANYCEGECPSHIAGTSGSSLSFHSTVINHYRMRGHSPFANLKSCCVPTKLRPMSMLYYDDGQNIIKKDIQNMIVEECGCS
For B2, the “concentration optimal to maintain the cells in an undifferentiated state” value (hES cell line HSF6; dose response at 5, 50 and 100 ng/ml) was 50 ng/mL, the “continued growth and passaging” value (hES cell line HSF6; on laminin) was “could not be passaged further” and the “passages of continuous growth in the undifferentiated state” value (hES cell line HSF6; on laminin, without feeder layers, conditioned medium or STAT3 activation) was “at least 10 passages”. For the same molecule, the “percentage of cells expressing TRA-1-60 after removal of activin” value (HSF6 cells [5]) was 3.9%, the “proliferation rate (3H thymidine incorporation)” value (hES cells [1]) was “significantly reduced” and the “staining for TRA-1-60 and Oct-4 / phenotype (immunohistochemistry)” value (HSF6 cells [6]) was “no change in phenotype”. The Smad2 phosphorylation (Smad2) was “showing phospho-Smad 2”.
